Where a SMILES comes first, the peptide text is derived from it. Bridges are numbered along the chain shown (N, C = ends). Where no end group is shown, it is not given here.
How the values were obtained:
[1] = tested on: CHO cells transfected with the vector alone; assay: [Ca2+]i response in CHO cells transfected with the vector alone; assay type: cell-based, Chinese hamster; conditions: data not shown
Protocol: (§1) An assay system using CG30106- or CG14593-expressing cells was prepared as previously described ([Ida et al., 2011a],[b]). The full-length cDNA of Drosophila CG30106 (GenBank accession number: NM_136355; residues […] to 1700) and CG14593 (GenBank accession number: NM_136355; residues 656–2185) was obtained by RT-PCR using Drosophila cDNA as the template. The sense and antisense primers for CG30106 were 5′-[…]-3′ and 5′-[…]-3′, respectively. The sense and antisense primers for CG14593 were 5′-[…]-3′ and 5′-[…]-3′, respectively. The amplified cDNA was ligated into the pcDNA3.1 vector (Invitrogen). The expression vector, i.e., CG30106 or CG14593-pcDNA3.1, was transfected into Chinese hamster ovary (CHO) cells by using with Fugene6 transfection reagent (Roche), and stably expressing cells were selected using 1 mg/ml G418. […] Changes in intracellular Ca^2^+ concentrations ([Ca^2^+]i) were measured using the FlexStation 3 fluorometric imaging plate reader to conduct high-throughput measurements of intracellular Ca^2^+ concentration (Molecular Devices, CA, USA; [Marshall et al., 2005]). […] The cells were incubated with 100 μl of Calcium 4 assay kit reagent (Molecular Devices) for 1 h, and then 50 μl of each sample was added to the CHO-CG30106 or CHO-CG14593 cells to induce changes in fluorescence. The maximum [Ca^2^+]i changes were recorded. […]

blowfly Phormia regina = assay: Proboscis extension reflex (PER) test; assay type: in vivo; conditions: 30 min after injection of 10 pmol (1 μl) into the shoulder, linger solution control 236 mM, p < 0.05, five sets of 20 flies
Protocol: The proboscis extension reflex (PER) test and feeding test were performed for the blowfly Phormia regina as previously described ([Nisimura et al., 2005]; [Ida et al., 2011a]). CCHamide-2 was dissolved in blowfly linger solution at a concentration of […]. Twenty flies were secured by their wings using washing pins, and the first PER test was performed by using 12 steps of sucrose concentrations that had been prepared by twofold serial dilutions in distilled water, beginning from a sucrose concentration of 1 M. We investigated the PER in three different groups of 20 flies each: no injection, fly linger injection, and fly linger plus peptide injection. The PER tests were performed 30 min after 1 μl of blowfly linger solution with or without peptide was injected into the shoulder of each fly. We repeated five sets of PER tests each, in which 20 flies were used in each batch.
Results are presented as the mean ± SEM for each group. To compare the PER thresholds among the three groups, we used a non-parametric Steel–Dwass test. The criterion for statistical significance was p < 0.05 for all tests. The statistical software program GraphPad PRISM (GraphPad software, CA, USA) was used for analyses.
In contrast, no difference was observed between the mean PER threshold without any injection and 30 min after linger solution injection (222 and 236 mM, respectively, p > 0.05). […]

flies = conditions: administration of CCHamide-2; ref Hiraguchi et al., paper in preparation; cited from earlier work
From the text: In addition, CCHamide-1 and CCHamide-2 have been detected in the nervous system and midgut in a mass spectrometry study performed by [Reiher et al. (2011)]. […] It is generally accepted that brain–gut peptides regulate feeding behavior in mammals ([Williams et al., 2001]). These peptides include neuropeptide Y, peptide YY, gastrin-releasing peptide, vasoactive inte ...

CG14593 = molecular target: T1, CG14593 (Drosophila melanogaster, UniProt Q4V622); assay: [Ca2+]i assay in CHO-CG14593 cells (FlexStation 3); assay type: cell-based; conditions: synthetic peptide not generated; predicted from amount of purified peptide and specific activity
T1 construct: expressed in transfected cells
T1 sequence (Q4V622 1-489): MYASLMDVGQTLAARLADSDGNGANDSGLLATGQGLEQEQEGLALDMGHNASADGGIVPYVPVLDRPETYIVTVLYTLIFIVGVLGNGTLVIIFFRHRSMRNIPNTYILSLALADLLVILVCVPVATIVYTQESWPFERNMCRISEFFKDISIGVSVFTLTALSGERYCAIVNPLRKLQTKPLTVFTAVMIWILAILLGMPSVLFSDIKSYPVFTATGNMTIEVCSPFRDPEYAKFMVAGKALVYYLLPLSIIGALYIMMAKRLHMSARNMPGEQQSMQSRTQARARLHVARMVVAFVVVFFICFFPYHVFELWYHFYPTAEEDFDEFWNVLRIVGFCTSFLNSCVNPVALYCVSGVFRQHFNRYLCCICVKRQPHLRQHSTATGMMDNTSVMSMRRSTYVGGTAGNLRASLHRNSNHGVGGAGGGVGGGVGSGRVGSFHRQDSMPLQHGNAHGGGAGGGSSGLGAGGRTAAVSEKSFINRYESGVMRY
Protocol: as §1

| Compound | [Ca2+]i response in vector-only CHO cells [1] | mean PER threshold (sucrose concentration at which 50% of flies show PER) (blowfly Phormia regina) [mM] | sucrose intake (flies) | predicted potency for activating CG14593 (CG14593) |
| --- | --- | --- | --- | --- |
| CC(C)C[C@@H]1NC(=O)[C@@H](NC(=O)[C@@H](N)CO)CSSC[C@@H](C(=O)N[C@@H](Cc2c[nH]c3ccccc23)C(=O)NCC(=O)N[C@@H](C)C(=O)N[C@@H](Cc2c[nH]cn2)C(N)=O)NC(=O)[C@H](CO)NC(=O)[C@H](Cc2c[nH]cn2)NC(=O)CNC(=O)[C@H](Cc2ccc(O)cc2)NC(=O)[C@H](CCC(=O)O)NC1=O [CCHamide-1] (H-SCLEYGHSCWGAH-NH2; disulfide 2-9) | Neither CCHamide-2 nor CCHamide-1 induced a response |  |  |  |
| CC(C)[C@@H]1NC(=O)[C@H](Cc2c[nH]cn2)NC(=O)CNC(=O)[C@H](Cc2ccc(O)cc2)NC(=O)[C@H](C)NC(=O)[C@H](CCC(N)=O)NC(=O)[C@@H](NC(=O)CN)CSSC[C@@H](C(=O)N[C@@H](Cc2ccc(O)cc2)C(=O)NCC(=O)NCC(=O)N[C@@H](Cc2c[nH]cn2)C(N)=O)NC1=O [CCHamide-2] (H-GCQAYGHVCYGGH-NH2; disulfide 2-9) | Neither CCHamide-2 nor CCHamide-1 induced a response | 77.2 | significantly increased |  |
| KKGCQAYGHVCYGGH-NH2 (disulfide 4-11 (inferred); N-terminus assumed; SMILES CC(C)[C@@H]1NC(=O)[C@H](Cc2c[nH]cn2)NC(=O)CNC(=O)[C@H](Cc2ccc(O)cc2)NC(=O)[C@H](C)NC(=O)[C@H](CCC(N)=O)NC(=O)[C@@H](NC(=O)CNC(=O)[C@H](CCCCN)NC(=O)[C@@H](N)CCCCN)CSSC[C@@H](C(=O)N[C@@H](Cc2ccc(O)cc2)C(=O)NCC(=O)NCC(=O)N[C@@H](Cc2c[nH]cn2)C(N)=O)NC1=O) [N-terminal extended form of CCHamide-2 purified from flies; not synthesized] |  |  |  | high potency similar to that of other forms of CCHamide-2 |

Source: PMC3533232, “Isolation of the bioactive peptides CCHamide-1 and CCHamide-2 from Drosophila and their putative role in appetite regulation as ligands for G protein-coupled receptors” (Frontiers in Endocrinology, 2012)
